From ChEMBL document CHEMBL1201862, “PubChem BioAssay data set” (2004)
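Step 1: Grow cells in 96-well plates. Step 2: Expose to compound for 48 hours at 5 concentrations. Step 3: Interpolate endpoints linearly; if unreached, use highest concentration. The concentration for 50% growth inhibition is given as GI50.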 Activity calls are given as the source filed them. No stated cut-off is given here; in the data, active = GI50 up to about 1.1 µM and inactive = higher.

Tests used:
Assay in all cases: inhibition of tumour cell growth, NCI panel, 48 h
KM12 = system: KM12
TK-10 = system: TK-10
OVCAR-5 = system: OVCAR-5
SNB-19 = system: SNB-19
HCT-116 = system: HCT-116
M14 = system: M14
UO-31 = system: UO-31
HOP-62 = system: HOP-62
UACC-62 = system: UACC-62
EKVX = system: EKVX
SF-295 = system: SF-295
IGROV-1 = system: IGROV-1
SK-OV-3 = system: SK-OV-3
SR = system: SR
ACHN = system: ACHN
Malme-3M = system: Malme-3M
SF-268 = system: SF-268
UACC-257 = system: UACC-257
OVCAR-8 = system: OVCAR-8
NCI-H460 = system: NCI-H460

| Structure (SMILES) | GI50 (KM12) | GI50 (TK-10) | GI50 (OVCAR-5) | GI50 (SNB-19) | GI50 (HCT-116) | GI50 (M14) | GI50 (UO-31) | GI50 (HOP-62) | GI50 (UACC-62) | GI50 (EKVX) | GI50 (SF-295) | GI50 (IGROV-1) | GI50 (SK-OV-3) | GI50 (SR) | GI50 (ACHN) | GI50 (Malme-3M) | GI50 (SF-268) | GI50 (UACC-257) | GI50 (OVCAR-8) | GI50 (NCI-H460) |
| --- | --- | --- | --- | --- | --- | --- | --- | --- | --- | --- | --- | --- | --- | --- | --- | --- | --- | --- | --- | --- |
| Cc1cn(C2CC(O)C(Cn3nncc3Cn3cnc4c(N)ncnc43)O2)c(=O)[nH]c1=O (centres undefined) | > 100 µM (inactive) | > 100 µM (inactive) | > 100 µM (inactive) | > 100 µM (inactive) | > 100 µM (inactive) | > 100 µM (inactive) | > 100 µM (inactive) | > 100 µM (inactive) | > 100 µM (inactive) | > 100 µM (inactive) | > 100 µM (inactive) | > 100 µM (inactive) | > 100 µM (inactive) | > 100 µM (inactive) | > 100 µM (inactive) | > 100 µM (inactive) | > 100 µM (inactive) | > 100 µM (inactive) | 26.4 µM (inactive) |  |
| N#Cc1sc2c(c1O)c(=O)n(-c1ccccc1)c(=S)n2-c1ccccc1 | > 100 µM (inactive) | > 100 µM (inactive) | > 100 µM (inactive) | > 100 µM (inactive) |  | > 100 µM (inactive) | > 100 µM (inactive) |  | > 100 µM (inactive) |  | > 100 µM (inactive) | > 100 µM (inactive) |  | > 100 µM (inactive) | > 100 µM (inactive) | > 100 µM (inactive) | > 100 µM (inactive) | > 100 µM (inactive) | > 100 µM (inactive) | > 100 µM (inactive) |
| C[Si](C)(C)C1=C2C(=O)c3ccccc3C(=O)C2=C([Si](C)(C)C)[C@@H]2CCCC[C@H]12 |  | > 100 µM (inactive) | > 100 µM (inactive) | > 100 µM (inactive) | > 100 µM (inactive) | > 100 µM (inactive) | > 100 µM (inactive) |  | > 100 µM (inactive) | > 100 µM (inactive) | > 100 µM (inactive) | > 100 µM (inactive) | > 100 µM (inactive) | > 100 µM (inactive) | > 100 µM (inactive) | > 100 µM (inactive) |  | > 100 µM (inactive) |  | > 100 µM (inactive) |
| Cn1c(=O)c(-c2ccccc2)c(O)c2ccccc21 | > 100 µM (inactive) | > 100 µM (inactive) | > 100 µM (inactive) | > 100 µM (inactive) | > 100 µM (inactive) |  | > 100 µM (inactive) | > 100 µM (inactive) |  | > 100 µM (inactive) | > 100 µM (inactive) | > 100 µM (inactive) |  | 42.5 µM (inactive) | > 100 µM (inactive) | > 100 µM (inactive) | > 100 µM (inactive) | > 100 µM (inactive) | > 100 µM (inactive) | > 100 µM (inactive) |
| O=C(c1ccccc1)c1c(CC(O)c2ccncc2)n(C(=O)c2ccccc2)c2ccccc12 (centres undefined) | 19.2 µM (inactive) | 28.6 µM (inactive) | 15.8 µM (inactive) | 21.8 µM (inactive) | 15.6 µM (inactive) | 16.9 µM (inactive) | 14.6 µM (inactive) | 16.4 µM (inactive) | 16.5 µM (inactive) |  | 12.1 µM (inactive) | 16.7 µM (inactive) |  | 16.6 µM (inactive) | 20.2 µM (inactive) | 18 µM (inactive) | 20.7 µM (inactive) | 17.5 µM (inactive) | 30 µM (inactive) | 18.7 µM (inactive) |
| c1ccc(COC2C3COC(O3)C(OCc3ccccc3)C2OCc2ccccc2)cc1 (centres undefined) | 29.6 µM (inactive) | 70.5 µM (inactive) | 69.5 µM (inactive) | 27.3 µM (inactive) | 33.9 µM (inactive) | 32.2 µM (inactive) | 56.2 µM (inactive) | 71.3 µM (inactive) | > 100 µM (inactive) | 38.7 µM (inactive) | 94.4 µM (inactive) | 79.1 µM (inactive) | > 100 µM (inactive) | 4.84 µM (inactive) | 27.5 µM (inactive) |  | > 100 µM (inactive) | 71.1 µM (inactive) | 60.7 µM (inactive) | 22 µM (inactive) |
| O=C(N[C@@H](Cc1ccccc1)B(O)O)[C@H](Cc1cccc2ccccc12)NC(=O)N1CCOCC1 | 0.00185 µM (active) | 0.00566 µM (active) | 0.00281 µM (active) | 0.00708 µM (active) | 0.000412 µM (active) | 0.00168 µM (active) | 0.232 µM (active) | 0.00524 µM (active) | 0.00248 µM (active) | 0.0267 µM (active) | 0.00478 µM (active) | 0.00618 µM (active) |  | 0.00131 µM (active) | 0.0105 µM (active) | 0.00187 µM (active) | 0.00161 µM (active) | 0.00219 µM (active) | 0.0254 µM (active) | 0.0215 µM (active) |
| O=C(CC(=O)N1N=C(c2ccccc2)C(/N=N/c2ccccc2Cl)C1=O)Nc1ccccc1Cl (centres undefined) | 14.1 µM (inactive) | 15.4 µM (inactive) | > 100 µM (inactive) | 40.4 µM (inactive) | 25.9 µM (inactive) | 37.9 µM (inactive) | 57.9 µM (inactive) | 33 µM (inactive) | 37.7 µM (inactive) | 33.1 µM (inactive) | 27.4 µM (inactive) | 63.1 µM (inactive) | 28.6 µM (inactive) | 19.3 µM (inactive) | 20.2 µM (inactive) |  | 31.5 µM (inactive) | 48.4 µM (inactive) | 31.7 µM (inactive) | 56.2 µM (inactive) |
| CCOP(=O)(OCC)C(c1ccc(F)cc1)N(C(=O)NC(F)(F)F)c1ccc(F)cc1 (centres undefined) | > 100 µM (inactive) | > 100 µM (inactive) | > 100 µM (inactive) | > 100 µM (inactive) | > 100 µM (inactive) | > 100 µM (inactive) | > 100 µM (inactive) | > 100 µM (inactive) |  | > 100 µM (inactive) | > 100 µM (inactive) | > 100 µM (inactive) |  | > 100 µM (inactive) | > 100 µM (inactive) | > 100 µM (inactive) | > 100 µM (inactive) | > 100 µM (inactive) | > 100 µM (inactive) | > 100 µM (inactive) |
| N=C(NC(=N)Nc1ccc(S(=O)(=O)Nc2cnc3ccccc3n2)cc1)Nc1ccc(Br)cc1 | > 100 µM (inactive) | > 100 µM (inactive) | > 100 µM (inactive) | > 100 µM (inactive) |  | > 100 µM (inactive) | > 100 µM (inactive) | > 100 µM (inactive) | > 100 µM (inactive) | > 100 µM (inactive) | > 100 µM (inactive) | > 100 µM (inactive) | > 100 µM (inactive) | > 100 µM (inactive) | > 100 µM (inactive) | > 100 µM (inactive) | > 100 µM (inactive) | > 100 µM (inactive) | > 100 µM (inactive) | > 100 µM (inactive) |
| Cc1cc2ncn(C3CCCO3)c2cc1C (centres undefined) | 74.5 µM (inactive) | > 100 µM (inactive) | > 100 µM (inactive) | > 100 µM (inactive) | > 100 µM (inactive) | > 100 µM (inactive) | 28.3 µM (inactive) | > 100 µM (inactive) | > 100 µM (inactive) | > 100 µM (inactive) | > 100 µM (inactive) | > 100 µM (inactive) | > 100 µM (inactive) | > 100 µM (inactive) | > 100 µM (inactive) | > 100 µM (inactive) | > 100 µM (inactive) | > 100 µM (inactive) | > 100 µM (inactive) |  |
| CC1=C(C(=O)N[C@@H](CC(C)C)C(=O)O)N2C(=O)[C@@H](NC(=O)[C@@H](N)Cc3ccccc3)[C@H]2SC1 | > 100 µM (inactive) | > 100 µM (inactive) | > 100 µM (inactive) | > 100 µM (inactive) |  | > 100 µM (inactive) |  |  | > 100 µM (inactive) | > 100 µM (inactive) | > 100 µM (inactive) | > 100 µM (inactive) |  | > 100 µM (inactive) | > 100 µM (inactive) | > 100 µM (inactive) | > 100 µM (inactive) | > 100 µM (inactive) | > 100 µM (inactive) | > 100 µM (inactive) |
| COc1ccc(/C=C\c2cc(OC)c(OC)c(OC)c2)c(O)c1O [COMBRETASTATIN A-1] | 0.0658 µM (active) | 2.92 µM (inactive) | 4.37 µM (inactive) |  |  | 0.0953 µM (active) | 0.91 µM (active) | 0.0893 µM (active) | 0.0394 µM (active) | 1.99 µM (inactive) | 0.05 µM (active) | 1.57 µM (inactive) |  | 2.07 µM (inactive) | 0.203 µM (active) | 0.678 µM (active) | 0.0665 µM (active) | 0.0582 µM (active) | 0.0881 µM (active) | 0.0463 µM (active) |
| COC(=O)C1(NC(=O)C(Cc2ccccc2)N(C(=O)OC(C)(C)C)C(=O)OC(C)(C)C)CCCC1 (centres undefined) |  | 32.7 µM (inactive) | 58.6 µM (inactive) | > 100 µM (inactive) | 55.7 µM (inactive) | > 100 µM (inactive) | 64 µM (inactive) | 77.8 µM (inactive) | 20.1 µM (inactive) | 66.2 µM (inactive) |  | > 100 µM (inactive) | > 100 µM (inactive) | > 10 µM (inactive) | > 10 µM (inactive) |  | > 100 µM (inactive) |  | 43.9 µM (inactive) | 46.1 µM (inactive) |
| NC(=O)c1ncn(Cc2ccccc2)c1CNC(N)=S | > 100 µM (inactive) | > 100 µM (inactive) | > 100 µM (inactive) | > 100 µM (inactive) |  | > 100 µM (inactive) | > 100 µM (inactive) |  | > 100 µM (inactive) | > 100 µM (inactive) | > 100 µM (inactive) | > 100 µM (inactive) | > 100 µM (inactive) | > 100 µM (inactive) | > 100 µM (inactive) |  | > 100 µM (inactive) |  | > 100 µM (inactive) | > 100 µM (inactive) |
